Assay results reported in patent US9163032B2, “Esters of DCPLA and methods of treatment using the same” (Blanchette Rockefeller Neurosciences Institute, priority 2011, dated 2015).

Key:
[1] = test system: cultured primary rat hippocampal neurons; experiment: Neuroprotection against ASPD induced toxicity, MTT assay, primary neurons; format: cell-based
Description: Viability of cells was measured by MTT assay. MTT (i.e., 3-(4,5-dimethylthiazol-2-yl)-2,5-diphenyltetrazolium bromide) is a tetrazolium salt that is cleaved to formazan by the succinate dehydrogenase, which is only active in viable cells. After solubilization of the formazan, the amount of dye can be quantified with a microplate reader at 570 nm along with a reference of 630 nm. For the MTT assay, 5×10^4 primary rat hippocampal neurons from 18-day-old embryonic Sprague-Dawley rat brains or SH-SY5Y cells were plated on each well of 24-well plates coated with poly-D-lysine. After treatment, the cells were washed with 1× PBS and were incubated with 200 μl of 1 mg/ml MTT solution (Sigma, USA) at 37° C. for 2 hr. Then the MTT-solution was removed and the cells were lysed with 200 μl isopropanol containing 0.04 M HCl and […] for 10 min. Finally, the reading was taken at 570 nm and 630 nm. All the samples were done in triplicate and the data were represented as the percentage of control.
Bryostatin 1, DCPLA, and DCPLA-ME were tested against ASPD-induced cytotoxicity to determine their neuroprotective efficacy.

PKC-ε [2] = experiment: PKC-ε translocation to membrane in SH-SY5Y neuroblastoma cells (Western Blot); format: cell-based, human
Description: Cells were harvested in homogenizing buffer containing 10 mM Tris-Cl (pH 7.4), 1 mM PMSF (phenylmethylsulfonyl fluoride), 1 mM EGTA, 1 mM EDTA, 50 mM NaF, and 20 μM leupeptin, and were lysed by sonication. The homogenate was centrifuged at 100,000×g for 15 min at 4° C. to obtain the cytosolic fraction (supernatant) and membrane (pellet). The pellet was resuspended in the homogenizing buffer by sonication. For whole cell protein isolation from primary neurons, the homogenizing buffer contained 1% Triton X-100. Protein concentration was measured using the Coomassie Plus (Bradford) Protein Assay kit (Pierce, USA). Following quantification, 20 μg of protein from each sample was subjected to SDS-PAGE analysis in a 4-20% gradient Tris-Glycine gel (Invitrogen, USA). The separated protein was then transferred to a nitrocellulose membrane. The membrane was blocked with 5% BSA at room temperature for 15 min and was incubated with primary antibody overnight at 4° C. After the incubation, it was washed three times with TBS-T (Tris Buffered Saline-Tween 20) and further incubated with alkaline phosphatase conjugated secondary antibody (Jackson Immunoresearch Laboratories, USA) at 1:10000 dilution for 45 min. The membrane was finally washed three times with TBS-T and developed using the 1-step NBT-BCIP substrate (Pierce, USA). The blot was imaged in an ImageQuant RT-ECL (GE Life Sciences, Piscataway, N.J.) and densitometric quantification was performed using IMAL software (Blanchette Rockefeller Neurosciences Institute, Morgantown, W. Va.). For translocation assays, PKC activation was represented as the percentage of total protein in the membrane (membrane/cytosol+membrane).

MAP-2 = MAP-2 expression in primary hippocampal neurons (immunofluorescence); format: cell-based, rat; conditions: 20 hr
Description: (§1) Cells were grown in two chambered slides (Nunc, USA) at low density. For immunofluorescence staining, the cells were washed with PBS (pH 7.4) and fixed with 4% paraformaldehyde for 4 min. Following fixation, the cells were blocked and permeabilized with 5% serum and 0.3% Triton X-100 in 1×PBS for 30 min. Cells were washed three times with 1×PBS and incubated with primary antibodies for 1 hr at 1:100 dilution. After the incubation, the slides were again washed three times in 1×PBS and were incubated with the FITC anti-mouse IgG and Rhodamine anti-rabbit IgG for 1 hr at 1:400 dilution. The cells were further washed and stained with DAPI (4′,6-diamidino-2′-phenylindole, dihydrochloride) (Thermo Scientific, USA) to stain the nucleus. Finally, the slides were washed and mounted in Pro Long Gold antifade mounting solution (Invitrogen, USA) and were viewed under a LSM 710 Meta confocal microscope (Zeiss) at 350 nm, 490 nm, and 540 nm excitation and 470 nm, 525 nm, and 625 nm emission for DAPI, FITC, and Rhodamine respectively. Six individual fields at 63× oil lens magnification were analyzed for the mean fluorescence intensity (MFI) in each channel.
Primary neurons, treated and untreated, were immunostained for MAP-2, synaptophysin, and PSD-95 to determine the synaptic integrity. […]

PKC-ε [3] = experiment: PKC-ε level in primary neurons (immunofluorescence, Western Blot); format: cell-based, rat
Description: as §1
Cells were harvested in homogenizing buffer containing 10 mM Tris-Cl (pH 7.4), 1 mM PMSF (phenylmethylsulfonyl fluoride), 1 mM EGTA, 1 mM EDTA, 50 mM NaF, and 20 μM leupeptin, and were lysed by sonication. The homogenate was centrifuged at 100,000×g for 15 min at 4° C. to obtain the cytosolic fraction (supernatant) and membrane (pellet). The pellet was resuspended in the homogenizing buffer by sonication. […] Protein concentration was measured using the Coomassie Plus (Bradford) Protein Assay kit (Pierce, USA). Following quantification, 20 μg of protein from each sample was subjected to SDS-PAGE analysis in a 4-20% gradient Tris-Glycine gel (Invitrogen, USA). […] The blot was imaged in an ImageQuant RT-ECL (GE Life Sciences, Piscataway, N.J.) and densitometric quantification was performed using IMAL software (Blanchette Rockefeller Neurosciences Institute, Morgantown, W. Va.). […]

PKC-ε mRNA = PKC-ε mRNA by RT-PCR in primary neurons; format: cell-based, rat; conditions: primary neurons treated with ASPD and/or DCPLA-ME, normalized to β-actin
Description: RNA was isolated from the cells using Trizol reagent (Invitrogen, USA) following the manufacturer's protocol. Briefly, 5 μg of the total RNA was reverse transcribed using oligo (dT) and Superscript III (Invitrogen, USA) at 50° C. for 1 hr. Two μl of the cDNA product was amplified using primers for PKC-ε (Forward Primer—[…], Reverse primer—[…] (Origene, Rockville, Md.)) and β-actin (Promega, USA) for 30 cycles following standard PCR protocols using a 55° C. annealing temperature. The PCR amplicons were analyzed in an E-Gel (Invitrogen, USA). The gel was imaged using a Fuji Image gel scanner (FLA-9000, Fuji Film) and densitometric quantification was performed using IMAL software (Blanchette Rockefeller Neurosciences Institute, Morgantown, W. Va.). Data were represented as normalized ratio of PKC-ε OD (Optical Density) against β-actin OD for three independent experiments.
Primary neurons were treated with ASPD and/or DCPLA-ME. PKC-ε mRNA was quantified by RT-PCR as described above. RNA prepared from control and treated cultured primary rat hippocampal neurons were isolated and reverse transcribed. Individual cDNA was amplified for PKC-ε and β-actin. PKC-ε expression was normalized to β-actin.

PSD-95 = PSD-95 expression in primary hippocampal neurons (immunofluorescence); format: cell-based, rat; conditions: 20 hr
Description: as §1
To estimate the synaptic damage caused by the ASPDs on primary hippocampal neurons, the expression of synaptophysin (a presynaptic marker) and PSD-95 (a postsynaptic marker) was measured by immunofluorescence staining. […] Following a 20 hr incubation period, the cells were stained for nucleus, PSD-95, and synaptophysin. Expression levels were calculated as the change of percentage in mean fluorescence intensity compared to untreated cells.
Primary neurons, treated and untreated, were immunostained for MAP-2, synaptophysin, and PSD-95 to determine the synaptic integrity. […] Following a 20 hr incubation period, the cells were stained for MAP-2, PSD-95, and synaptophysin as described above.

For “ASPD: Amylospheroids from Aβ1-42, 100 kDa filter retentate, containing 39 monomers on average”, the “viability of primary neurons” value ([1]; 50 nM ASPD alone, 20 hr) was 57.6±1.6%, the “reduction of PKC-ε membrane translocation” value (PKC-ε [2]; ASPD 50 nM) was 46% and the PKC-ε membrane translocation (PKC-ε [2]; ASPD 50 nM, relative to control) was 69.98±3.27%. The “MAP-2 mean fluorescence intensity” value (MAP-2; 50 nM ASPD) was 40.7±6.2 % of control, the PKC-ε immunofluorescence level (PKC-ε [3]; ASPD, 20 hr, primary neurons) was 60.81±5.85 % compared to control and the PKC-ε transcript levels (PKC-ε mRNA) was “did not change PKC-ε mRNA significantly”. For the same molecule, the “PSD-95 mean fluorescence intensity” value (PSD-95; 50 nM ASPD) was 67.63±7.24 % of control and the “decrease of PSD-95 expression” value (PSD-95; 50 nM ASPD) was 42%.

In the case of `CCCCCC1CC1CC1CC1CCCCCCCC(=O)OC` (stereo not drawn) [DCPLA-ME, DCPLA methyl ester], the “more viable than Bryostatin 1-treated cells” value ([1]; 50 nM ASPD, DCPLA-ME 100 nM vs Bryostatin 1 0.27 nM) was 16%, the “more viable than DCPLA-treated cells” value ([1]; 50 nM ASPD, DCPLA-ME 100 nM vs DCPLA 10 μM) was 8% and the “PKC-ε translocation in ASPD-treated cells” value (PKC-ε [2]; ASPD + DCPLA-ME, FIG. 8D) was “restored PKC-ε translocation to normal”. The “MAP-2 mean fluorescence intensity” value (MAP-2; 50 nM ASPD + 100 nM DCPLA-ME) was 68.87±2.0 % of control, the “PKC-ε protein level (Western Blot)” value (PKC-ε [3]; ASPD-treated primary neurons, 100 nM DCPLA-ME) was “restored the PKC-ε protein level to normal” and the PKC-ε transcript levels (PKC-ε mRNA) was “increased PKC-ε transcript levels”. For the same molecule, the “PSD-95 mean fluorescence intensity” value (PSD-95; 50 nM ASPD + 100 nM DCPLA-ME) was 99.2±11.3 % of control.
